Test results taken from patent US20220332764A1, “T CELL EPITOPES OF HCMV AND USES OF THEREOF” (EBERHARD KARLS UNIVERSITÄT TÜBINGEN, priority 2019, published 2022).
Values joined by “and” are separate entries in the source; they are usually repeats but may differ in a detail not shown here. Equal values may be shown once. Read-outs that look alike come from different tables or passages of the source.

What was measured:
[1] = system: CD8+ / CD4+ T cells of donor PBMCs; test: Intracellular cytokine staining (ICS; IFNγ, TNFα, CD107a); format: cell-based, human; details: for Intracellular staining: responding T-cell subset; for Intracellular cytokine staining: responding T-cell subset after peptide stimulation
Source text: PHA was used as positive control. […] (Cytofix/Cytoperm, BD Biosciences).

[2] = system: PBMCs of healthy HCMV-seropositive donors; test: IFNγ ELISpot after 12 day stimulation (memory T-cell response); format: cell-based, human; details: for % Positive donors (after 12 days of stimulation): IFNγ ELISpot, HLA-matched seropositive donors; for ELISpot response rate (12 d stim.): 12-day amplification with IL-2 in vitro; for Positive donors as tested: positive / tested HLA-matched seropositive donors, positive: >10 spots/well and at least 3-fold negative control; for Binding to more than one HLA-I allotype: stimulated T cells of different donors harboring either of two well predicted alleles
Source text: (§1) PHA was used as positive control.

[3] = system: PBMCs of healthy HCMV-seropositive donors; test: ex vivo IFNγ ELISpot without prestimulation; format: cell-based, human; details: for % Positive donors (ex vivo): IFNγ ELISpot ex vivo, donors previously tested positive; for ELISpot response rate (ex vivo): donors positively tested in ELISpots with 12d stimulation
Source text: as §1

[4] = system: CD8+ T cells of HLA-matched healthy donors; details: for Tetramer-staining: after 12 day amplification

Sequence	Intracellular cytokine staining [1]	% Positive donors (after 12 days of stimulation) [2]	Positive donors as tested [2]	% Positive donors (ex vivo) [3]	Tetramer-staining [4]	also measured
ALWDVALLEV (listed as Human cytomegalovirus) [SEQ ID NO: 2]	CD8	71.4%	10/14	25.0%	Positive	Intracellular staining ([1]; Tested HLA A*02:01): CD8; ELISpot response rate (12 d stim.) ([2]; Tested HLA A*02:01): 71.4; ELISpot response rate (ex vivo) ([3]; Tested HLA A*02:01): 25.0; Tetramer staining ([4]; Tested HLA A*02:01): positive
DARSRIHNV (listed as Human cytomegalovirus) [SEQ ID NO: 89]	CD8	53.3%	8/15	–	Positive	Intracellular staining ([1]; Tested HLA B*51:01): CD8; ELISpot response rate (12 d stim.) ([2]; Tested HLA B*51:01): 53.3; ELISpot response rate (ex vivo) ([3]; Tested HLA B*51:01): 20.0; Tetramer staining ([4]; Tested HLA B*51:01): positive
DEQVSKRSW (listed as Human cytomegalovirus) [SEQ ID NO: 42]	CD8	45.8%	11/24	12.5%	Positive	–
FLDENFKQL (listed as Human cytomegalovirus) [SEQ ID NO: 5]	CD4	47.6%	10/21	37.5%	Negative	–
FPVEVRSHV (listed as Human cytomegalovirus) [SEQ ID NO: 88]	CD8	65.2%	15/23	0.0%	Positive	Intracellular staining ([1]; Tested HLA B*51:01): CD8; ELISpot response rate (12 d stim.) ([2]; Tested HLA B*51:01): 65.2; ELISpot response rate (ex vivo) ([3]; Tested HLA B*51:01): 0.0; Tetramer staining ([4]; Tested HLA B*51:01): positive
GLYTQPRWK (listed as Human cytomegalovirus) [SEQ ID NO: 67]	CD8	76.2%	16/21	50.0%	Positive	Intracellular staining ([1]; Tested HLA A*03:01): CD8; ELISpot response rate (12 d stim.) ([2]; Tested HLA A*03:01): 76.2; ELISpot response rate (ex vivo) ([3]; Tested HLA A*03:01): 50.0; Tetramer staining ([4]; Tested HLA A*03:01): positive
GVLDAVWRV (listed as Human cytomegalovirus) [SEQ ID NO: 1]	CD8	72.2%	13/18	50.0%	Positive	Intracellular staining ([1]; Tested HLA A*02:01): CD8; ELISpot response rate (12 d stim.) ([2]; Tested HLA A*02:01): 72.2; ELISpot response rate (ex vivo) ([3]; Tested HLA A*02:01): 50.0; Tetramer staining ([4]; Tested HLA A*02:01): positive
HETGVYQMW (listed as Human cytomegalovirus) [SEQ ID NO: 41]	CD8	65.4%	17/26	62.5%	Positive	Intracellular staining ([1]; Tested HLA B*44:02): CD8; ELISpot response rate (12 d stim.) ([2]; Tested HLA B*44:02): 65.4; ELISpot response rate (ex vivo) ([3]; Tested HLA B*44:02): 62.5; Tetramer staining ([4]; Tested HLA B*44:02): positive
ITEIALDRY (listed as Human cytomegalovirus) [SEQ ID NO: 54]	CD8	58.3%	14/24	14.3%	Positive	Intracellular staining ([1]; Tested HLA A*01:01): CD8; ELISpot response rate (12 d stim.) ([2]; Tested HLA A*01:01): 58.3; ELISpot response rate (ex vivo) ([3]; Tested HLA A*01:01): 14.3; Tetramer staining ([4]; Tested HLA A*01:01): positive
KLGYRPHAK (listed as Human cytomegalovirus) [SEQ ID NO: 71]	CD8	37.9%	11/29	–	Positive	–
LPHERHREL (listed as Human cytomegalovirus) [SEQ ID NO: 100]	CD8	–	20/22 and 3/12	85.7%	positive	Intracellular staining ([1]; Tested HLA B*08:01): CD8; ELISpot response rate (12 d stim.) ([2]; Tested HLA B*08:01): 90.9; Binding to more than one HLA-I allotype [2]: potentially able to bind to more than one HLA-I allotype; ELISpot response rate (ex vivo) ([3]; Tested HLA B*08:01): 85.7; Tetramer staining ([4]; Tested HLA B*08:01): positive
LPLKMLNI (listed as Human cytomegalovirus) [SEQ ID NO: 87]	CD8	80.0%	12/15	87.5%	Positive	Intracellular staining ([1]; Tested HLA B*51:01): CD8; ELISpot response rate (12 d stim.) ([2]; Tested HLA B*51:01): 80.0; ELISpot response rate (ex vivo) ([3]; Tested HLA B*51:01): 87.5; Tetramer staining ([4]; Tested HLA B*51:01): positive
LPYPRGYTL (listed as Human cytomegalovirus) [SEQ ID NO: 99]	CD8	68.8% and 62.5%	11/16 and 10/16	16.7% and 33.3%	positive	Intracellular staining ([1]; Tested HLA B*08:01): CD8; Intracellular staining ([1]; Tested HLA B*51:01): CD8; Response in mismatch ELISpots ([2]; B*08-/B*51− PBMC samples): showed responses; ELISpot response rate (12 d stim.) ([2]; Tested HLA B*08:01): 68.8; ELISpot response rate (12 d stim.) ([2]; Tested HLA B*51:01): 62.5; Binding to more than one HLA-I allotype [2]: potentially able to bind to more than one HLA-I allotype; ELISpot response rate (ex vivo) ([3]; Tested HLA B*08:01): 16.7; ELISpot response rate (ex vivo) ([3]; Tested HLA B*51:01): 33.3; HLA restriction demonstrated by tetramer stainings [4]: B*08 and B*51 restriction; Tetramer staining ([4]; Tested HLA B*08:01): positive; Tetramer staining ([4]; Tested HLA B*51:01): positive
NLVPMVATV (listed as Human cytomegalovirus) [SEQ ID NO: 101]	–	–	–	–	–	Intracellular staining ([1]; Tested HLA A*02:01): CD8; ELISpot response rate (12 d stim.) ([2]; Tested HLA A*02:01): 75.0; ELISpot response rate (ex vivo) ([3]; Tested HLA A*02:01): 100.0; Tetramer staining ([4]; Tested HLA A*02:01): positive
NTDFRVLELY (listed as Human cytomegalovirus) [SEQ ID NO: 55]	CD8	56.3%	9/16	0.0%	Positive	Intracellular staining ([1]; Tested HLA A*01:01): CD8; ELISpot response rate (12 d stim.) ([2]; Tested HLA A*01:01): 56.3; ELISpot response rate (ex vivo) ([3]; Tested HLA A*01:01): 0.0; Tetramer staining ([4]; Tested HLA A*01:01): positive
RPFPSTHQL (listed as Human cytomegalovirus) [SEQ ID NO: 31]	–	30.8%	4/13	0.0%	–	–
RSALGPFVGK (listed as Human cytomegalovirus) [SEQ ID NO: 69]	CD8	40.0%	6/15	–	Positive	–
RTDPATLTAY (listed as Human cytomegalovirus) [SEQ ID NO: 53]	CD8	82.6%	19/23	66.7%	Positive	Intracellular staining ([1]; Tested HLA A*01:01): CD8; ELISpot response rate (12 d stim.) ([2]; Tested HLA A*01:01): 82.6; ELISpot response rate (ex vivo) ([3]; Tested HLA A*01:01): 66.7; Tetramer staining ([4]; Tested HLA A*01:01): positive
RVKNRPIYR (listed as Human cytomegalovirus) [SEQ ID NO: 68]	CD8	60.9%	14/23	33.3%	Positive	Intracellular staining ([1]; Tested HLA A*03:01): CD8; ELISpot response rate (12 d stim.) ([2]; Tested HLA A*03:01): 60.9; ELISpot response rate (ex vivo) ([3]; Tested HLA A*03:01): 33.3; Tetramer staining ([4]; Tested HLA A*03:01): positive
SENGNLQVTY (listed as Human cytomegalovirus) [SEQ ID NO: 40]	CD8	83.9%	26/31	62.5%	Positive	Intracellular staining ([1]; Tested HLA B*44:02): CD8; ELISpot response rate (12 d stim.) ([2]; Tested HLA B*44:02): 83.9; ELISpot response rate (ex vivo) ([3]; Tested HLA B*44:02): 62.5; Tetramer staining ([4]; Tested HLA B*44:02): positive
SLDRFIVQY (listed as Human cytomegalovirus) [SEQ ID NO: 57]	CD4	35.7%	5/14	–	–	–
SLFYRAVAL (listed as Human cytomegalovirus) [SEQ ID NO: 98]	–	–	5/13 and 4/22	12.5%	–	Binding to more than one HLA-I allotype [2]: potentially able to bind to more than one HLA-I allotype
